# The source made the active and inactive calls.
# Legend:
# [1] = Metabolic stability in human liver microsomes assessed as half life measured up to 60 mins in presence of NADPH by LC-MS/MS analysis; format: ADME, Microsome
# [2] = AUC (0 to infinity) in male CD-1 mouse at 10 mg/kg, po measured up to 24 hrs by LC-MS/MS analysis; format: ADME, organism-based; settings: in vivo
# Mus musculus [3] = assay: Analgesic activity in PTX-induced neuropathic pain male C57BL/6 mouse model assessed as improvement in mechanical paw withdrawal threshold at 10 mg/kg, po measured up to 4 hrs by Von Frey test; format: functional, organism-based
# [4] = AUC (0 to infinity) in male CD-1 mouse at 2 mg/kg, iv measured up to 24 hrs by LC-MS/MS analysis; format: ADME, organism-based; settings: in vivo
# [5] = MRT in male CD-1 mouse at 2 mg/kg, iv measured up to 24 hrs by LC-MS/MS analysis; format: ADME, organism-based; settings: in vivo
# [6] = C0 in male CD-1 mouse at 2 mg/kg, iv measured up to 24 hrs by LC-MS/MS analysis; format: ADME, organism-based; settings: in vivo
# PBMC [7] = assay: Anti-inflammatory activity in LPS-induced human PBMC assessed as reduction in IL-6 level pre-incubated with compound for 30 mins followed by LPS stimulation and measured after 6 hrs by ELISA; format: functional, cell-based; settings: dose 1-1000 nM
# [8] = Permeability coefficient of compound in PBS at pH 7.4 at 10 uM incubated for 16 hrs PAMPA-BBB assay
# [9] = Clearance in male CD-1 mouse at 2 mg/kg, iv measured up to 24 hrs by LC-MS/MS analysis; format: ADME, organism-based; settings: in vivo
# Mus musculus [10] = assay: Analgesic activity in PTX-induced neuropathic pain male C57BL/6 mouse model assessed as improvement in mechanical paw withdrawal threshold at 30 mg/kg, po administered for 14 days by Von Frey test; format: functional, organism-based; settings: time 14.0 day
# [11] = Half life in male CD-1 mouse at 2 mg/kg, iv measured up to 24 hrs by LC-MS/MS analysis; format: ADME, organism-based; settings: in vivo
# [12] = Cytotoxicity against human PBMC at 10 uM incubated for 24 hrs by MTT assay; format: toxicity, cell-based
# [13] = Half life in male CD-1 mouse at 10 mg/kg, po measured up to 24 hrs by LC-MS/MS analysis; format: ADME, organism-based; settings: in vivo
# [14] = Metabolic stability in human liver microsomes assessed as intrinsic clearance measured up to 60 mins in presence of NADPH by LC-MS/MS analysis; format: ADME, Microsome; settings: 1 h
# [15] = Volume of distribution at steady state in male CD-1 mouse at 2 mg/kg, iv measured up to 24 hrs by LC-MS/MS analysis; format: ADME, organism-based; settings: in vivo, read-out: Vdss
# [16] = MRT in male CD-1 mouse at 10 mg/kg, po measured up to 24 hrs by LC-MS/MS analysis; format: ADME, organism-based; settings: in vivo
# [17] = Oral bioavailability in male CD-1 mouse at 10 mg/kg measured up to 24 hrs by LC-MS/MS analysis; format: ADME, organism-based; settings: in vivo
# PBMC [18] = assay: Anti-inflammatory activity in LPS-induced human PBMC assessed as reduction in TNF-alpha level pre-incubated with compound for 30 mins followed by LPS stimulation and measured after 6 hrs by ELISA; format: functional, cell-based; settings: dose 1-1000 nM, time 390.0 min
# [19] = Metabolic stability in mouse liver microsomes assessed as half life measured up to 60 mins in presence of NADPH by LC-MS/MS analysis; format: ADME, Microsome
# Mus musculus [20] = assay: Analgesic activity in PTX-induced neuropathic pain male C57BL/6 mouse model assessed as improvement in mechanical paw withdrawal threshold at 10 to 30 mg/kg, po measured for 2 to 4 hrs by Von Frey test; format: functional, organism-based; settings: dose 10-30 mg/kg, time 2-4 hrs
# Mus musculus [21] = assay: Analgesic activity in PTX-induced neuropathic pain male C57BL/6 mouse model assessed as improvement in mechanical paw withdrawal threshold at 30 mg/kg, po measured up to 4 hrs by Von Frey test; format: functional, organism-based
# [22] = Cmax in male CD-1 mouse at 10 mg/kg, po measured up to 24 hrs by LC-MS/MS analysis; format: ADME, organism-based; settings: in vivo
# [23] = molecular target: T1, Bifunctional epoxide hydrolase 2 (Homo sapiens, UniProt P34913); assay: Inhibition of human recombinant sEH expressed in baculovirus infected Sf9 cells using PHOME as substrate preincubated for 10 mins followed by substrate addition measured after 60 mins by fluorescence based assay; format: cell-based
# T1 sequence (P34913 whole entry): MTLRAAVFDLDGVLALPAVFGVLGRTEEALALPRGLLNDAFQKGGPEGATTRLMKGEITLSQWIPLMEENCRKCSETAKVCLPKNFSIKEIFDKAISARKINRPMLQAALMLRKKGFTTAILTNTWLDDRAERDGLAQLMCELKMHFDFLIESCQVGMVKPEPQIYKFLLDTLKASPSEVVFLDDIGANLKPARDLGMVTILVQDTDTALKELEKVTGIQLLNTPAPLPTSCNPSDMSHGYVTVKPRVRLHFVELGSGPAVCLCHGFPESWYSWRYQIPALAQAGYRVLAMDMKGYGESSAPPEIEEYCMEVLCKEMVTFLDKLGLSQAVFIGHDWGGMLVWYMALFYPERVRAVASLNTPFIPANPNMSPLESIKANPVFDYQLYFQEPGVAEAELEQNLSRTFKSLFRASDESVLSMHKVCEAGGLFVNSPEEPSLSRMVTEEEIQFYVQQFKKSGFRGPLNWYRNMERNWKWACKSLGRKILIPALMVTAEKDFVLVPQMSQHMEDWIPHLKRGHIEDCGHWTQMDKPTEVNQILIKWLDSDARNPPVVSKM
# Mus musculus [24] = assay: Analgesic activity in PTX-induced neuropathic pain male C57BL/6 mouse model assessed as improvement in mechanical paw withdrawal threshold at 60 mg/kg, po measured up to 4 hrs by Von Frey test; format: functional, organism-based
# Mus musculus [25] = assay: Analgesic activity in PTX-induced neuropathic pain male C57BL/6 mouse model assessed as improvement in mechanical paw withdrawal threshold at 60 mg/kg, po administered for 14 days by Von Frey test; format: functional, organism-based; settings: time 14.0 day
# [26] = Toxicity in PTX-induced neuropathic pain male C57BL/6 mouse model assessed as change in body weight at 60 mg/kg/day, po treated for 14 days; format: organism-based; settings: in vivo, 336 h, time 14 day
smiles,measurement,setting,value
O=C(NCc1ccccc1OC(F)(F)F)Nc1ccc(-c2ccc(=O)[nH]n2)cc1,half-life,[1],> 3.08 h
same,AUC(0-inf),[2],29700 ng·h/mL
same,Activity,Mus musculus [3],inactive
same,AUC(0-inf),[4],7630 ng·h/mL
same,MRT,[5],3.5 h
same,C0 at 24 h,[6],4640 ng/mL
same,Activity,PBMC [7],Dose-dependent-effect
same,"Papp at 16 h, 10 µM",[8],3.83 ×10⁻⁶ cm/s
same,clearance,[9],4.8 mL/min/kg
same,Activity,Mus musculus [10],"Active; Effect Was Lower Than Gabapentin With Chronic Use, But Its Efficacy Remained Stable"
same,half-life,[11],3.21 h
same,Activity,[12],Non-toxic
same,half-life,[13],2.43 h
same,CLH,[14],< 7.5 µL/min/mg
same,Vd,[15],1.02 L/kg
same,MRT,[16],5.23 h
same,bioavailability,[17],78%
same,Activity,PBMC [18],Dose-dependent-effect
same,half-life,[19],> 3.08 h
same,Activity,Mus musculus [20],Active
same,Activity,Mus musculus [21],Active
same,Cmax,[22],4700 ng/mL
O=C(Cc1ccccc1C(F)(F)F)Nc1ccc(-c2ccc(=O)[nH]n2)cc1,IC50,[23],> 100 nM
O=C(NCc1ccc(C(F)(F)F)cc1)Nc1ccc(-c2ccc(=O)[nH]n2)cc1,IC50,[23],≥ 100 nM
CN(Cc1cnc2nc(N)nc(N)c2n1)c1ccc(C(=O)N[C@@H](CCC(=O)O)C(=O)O)cc1 [METHOTREXATE],Kp,"[8]; 16 h, 10 µM",0.001 ×10⁻⁶ cm/s
COc1ccc(CNC(=O)Nc2ccc(-c3ccc(=O)[nH]n3)cc2)c(C(F)(F)F)c1,half-life,[1],> 3.08 h
same,CLH,[14],< 7.5 µL/min/mg
same,half-life,[19],0.393 h
O=C(NCc1ccccc1F)Nc1ccc(-c2ccc(=O)[nH]n2)cc1,IC50,[23],≥ 100 nM
O=C(NCc1ccccc1C(F)(F)F)Nc1ccc(-c2ccc(=O)[nH]n2)cc1,half-life,[1],> 3.08 h
same,CLH,[14],< 7.5 µL/min/mg
same,half-life,[19],> 3.08 h
NCC1(CC(=O)O)CCCCC1 [GABAPENTIN],Activity,Mus musculus [24],Active; Exhibited Consistent And Prolonged Effect
same,Activity,Mus musculus [25],Active; Compound Effect Noticeably Decreased With Prolonged Administration
same,Activity,[26],Non-toxic
Cn1nc(-c2ccc(NC(=O)NCc3ccccc3C(F)(F)F)cc2)ccc1=O,half-life,[1],> 3.08 h
same,CLH,[14],< 7.5 µL/min/mg
same,half-life,[19],> 3.08 h
O=C(NCc1cccc(C(F)(F)F)c1)Nc1ccc(-c2ccc(=O)[nH]n2)cc1,IC50,[23],≥ 100 nM
O=C(NCc1ccccc1)Nc1ccc(-c2ccc(=O)[nH]n2)cc1,IC50,[23],> 100 nM
